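1) Cells in 96-well plates. 2) Compound, 48 h, 5 concentrations. 3) Linear interpolation between surrounding doses. 4) Unreached endpoint = highest concentration. GI50 = concentration required for 50% inhibition of growth.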 Activity calls are given as the source filed them. Rule as the data show it: active = GI50 up to about 1.1 µM and inactive = higher.
Key:
Test in all cases: inhibition of tumour cell growth, NCI panel, 48 h
A549 = system: A549
BT-549 = system: BT-549
CAKI-1 = system: CAKI-1
DU-145 = system: DU-145
HCT-15 = system: HCT-15
HOP-62 = system: HOP-62
HOP-92 = system: HOP-92
LOX IMVI = system: LOX IMVI
MCF7 = system: MCF7
MDA-MB-435 = system: MDA-MB-435
NCI-H522 = system: NCI-H522
NCI/ADR-RES = system: NCI/ADR-RES
OVCAR-8 = system: OVCAR-8
RPMI-8226 = system: RPMI-8226
RXF 393 = system: RXF 393
SF-295 = system: SF-295
SF-539 = system: SF-539
SR = system: SR
UACC-62 = system: UACC-62
UO-31 = system: UO-31

Measured: GI50

CC1=C[C@H]([C@H]2C=C(C)C(C(N)=O)=CN2Cc2c(Cl)cccc2Cl)N(Cc2c(Cl)cccc2Cl)C=C1C(N)=O
inactive: A549 > 75 µM | BT-549 > 75 µM | CAKI-1 > 75 µM | DU-145 > 75 µM | HOP-62 > 75 µM | HOP-92 16 µM | LOX IMVI > 75 µM | MCF7 > 75 µM | MDA-MB-435 > 75 µM | NCI-H522 57.1 µM | NCI/ADR-RES > 75 µM | OVCAR-8 52.7 µM | RPMI-8226 69.7 µM | RXF 393 74.5 µM | SF-295 > 75 µM | SF-539 > 75 µM | SR > 75 µM | UACC-62 > 75 µM | UO-31 > 75 µM
> 75 µM: HCT-15

COC(=O)[C@@H]1c2c(oc3cc(CO)cc(O)c3c2=O)C=C[C@H]1O
2.7 µM: HCT-15
inactive: A549 16.8 µM | BT-549 2.94 µM | CAKI-1 8 µM | DU-145 3.24 µM | HOP-62 17.9 µM | HOP-92 8.63 µM | LOX IMVI 3.32 µM | MCF7 2.86 µM | MDA-MB-435 4.15 µM | NCI-H522 1.84 µM | NCI/ADR-RES 17.9 µM | OVCAR-8 5.56 µM | RPMI-8226 2.49 µM | RXF 393 2.8 µM | SF-295 18.4 µM | SF-539 2.67 µM | SR 5.6 µM | UACC-62 12.3 µM | UO-31 3.78 µM

CCCC(=O)NC(C(=O)OCC)(N1CCOCC1)C(F)(F)F (centres undefined)
inactive: A549 > 100 µM | BT-549 > 100 µM | CAKI-1 > 100 µM | DU-145 > 100 µM | HOP-62 > 100 µM | HOP-92 > 100 µM | LOX IMVI > 100 µM | MCF7 > 100 µM | MDA-MB-435 > 100 µM | NCI-H522 > 100 µM | NCI/ADR-RES > 100 µM | OVCAR-8 > 100 µM | RPMI-8226 > 100 µM | RXF 393 > 100 µM | SF-295 > 100 µM | SF-539 > 100 µM | SR > 100 µM | UACC-62 > 100 µM | UO-31 > 100 µM
> 100 µM: HCT-15

CC(O)CCC(=O)c1ccoc1 (centres undefined)
7660 µM: HCT-15
inactive: A549 3940 µM | BT-549 2920 µM | CAKI-1 2730 µM | DU-145 8200 µM | HOP-62 6930 µM | HOP-92 2490 µM | LOX IMVI 6030 µM | MCF7 5680 µM | MDA-MB-435 > 10000 µM | NCI-H522 3680 µM | NCI/ADR-RES 4990 µM | OVCAR-8 6840 µM | RPMI-8226 3740 µM | RXF 393 4850 µM | SF-295 7130 µM | SF-539 9930 µM | SR > 9290 µM | UACC-62 5210 µM | UO-31 3390 µM

C=C(C=O)c1c2c(nc3ccccc13)C(=O)c1ccccc1C2=O
inactive: A549 1.86 µM | BT-549 1.82 µM | HOP-62 1.15 µM | HOP-92 1.67 µM | SF-295 1.29 µM
active: CAKI-1 0.52 µM | DU-145 0.286 µM | LOX IMVI 0.316 µM | MCF7 0.429 µM | MDA-MB-435 0.273 µM | NCI-H522 0.366 µM | NCI/ADR-RES 0.265 µM | OVCAR-8 0.434 µM | RPMI-8226 0.296 µM | RXF 393 0.304 µM | SF-539 0.673 µM | SR 0.24 µM | UACC-62 0.918 µM | UO-31 1.11 µM
0.298 µM: HCT-15

CNC(=O)Nc1ccccc1
> 100 µM: HCT-15
inactive: A549 > 100 µM | BT-549 > 100 µM | CAKI-1 > 100 µM | DU-145 > 100 µM | HOP-62 > 100 µM | HOP-92 > 100 µM | LOX IMVI > 100 µM | MCF7 > 100 µM | MDA-MB-435 > 100 µM | NCI-H522 > 100 µM | NCI/ADR-RES > 100 µM | OVCAR-8 > 100 µM | RPMI-8226 > 100 µM | RXF 393 > 100 µM | SF-295 > 100 µM | SF-539 > 100 µM | SR > 100 µM | UACC-62 > 100 µM | UO-31 > 100 µM

COc1cc(N(CCC#N)CCC#N)ccc1/C=C1\SC(=S)NC1=O
> 100 µM: HCT-15
inactive: A549 > 100 µM | BT-549 > 100 µM | CAKI-1 > 100 µM | DU-145 > 100 µM | HOP-62 > 100 µM | HOP-92 > 100 µM | LOX IMVI > 100 µM | MCF7 > 100 µM | MDA-MB-435 > 100 µM | NCI-H522 > 100 µM | NCI/ADR-RES > 100 µM | OVCAR-8 > 100 µM | RPMI-8226 > 100 µM | RXF 393 > 100 µM | SF-295 > 100 µM | SF-539 > 100 µM | SR > 100 µM | UACC-62 > 100 µM | UO-31 > 100 µM

COc1ccc(-c2cc(-c3ccccc3)n(C3OC(COC(C)=O)C(OC(C)=O)C(OC(C)=O)C3OC(C)=O)c(=S)c2C#N)cc1 (centres undefined)
inactive: A549 10.6 µM | BT-549 12.4 µM | CAKI-1 6.52 µM | DU-145 11.7 µM | HOP-62 3.81 µM | HOP-92 4.39 µM | LOX IMVI 4.51 µM | MCF7 25.4 µM | MDA-MB-435 6.89 µM | NCI-H522 5.37 µM | NCI/ADR-RES 11 µM | OVCAR-8 3.58 µM | RPMI-8226 3.28 µM | RXF 393 11.2 µM | SF-295 5.47 µM | SF-539 3.88 µM | SR 13.6 µM | UACC-62 4.79 µM | UO-31 9.08 µM
26.1 µM: HCT-15

CC(C)(Br)C(Br)CC/C(=C/CBr)CBr.CC(C)(Br)C(Br)CC/C(=C\CBr)CBr (centres undefined)
2.51 µM: HCT-15
active: LOX IMVI 0.13 µM | SR 0.783 µM
inactive: A549 13.9 µM | BT-549 2.45 µM | CAKI-1 9.91 µM | DU-145 10.5 µM | HOP-62 2.89 µM | HOP-92 4.33 µM | MCF7 3.29 µM | MDA-MB-435 3.69 µM | NCI-H522 1.66 µM | NCI/ADR-RES 3.11 µM | OVCAR-8 2.54 µM | RPMI-8226 1.47 µM | RXF 393 2.22 µM | SF-295 3.46 µM | SF-539 4.66 µM | UACC-62 2.05 µM | UO-31 14.3 µM

COc1ccc(-c2oc3c(OC)c(OC)c(OC)c(O)c3c(=O)c2OC)cc1OC
inactive: A549 27.5 µM | BT-549 34.4 µM | CAKI-1 40.4 µM | DU-145 36.2 µM | HOP-62 19.5 µM | LOX IMVI 11 µM | MCF7 3.97 µM | MDA-MB-435 4.69 µM | NCI-H522 14.3 µM | NCI/ADR-RES 13.3 µM | OVCAR-8 25.4 µM | RPMI-8226 16.7 µM | RXF 393 17.4 µM | SF-295 22 µM | SF-539 19.4 µM | SR 7.87 µM | UACC-62 21.8 µM | UO-31 9.06 µM
14 µM: HCT-15
active: HOP-92 0.243 µM

C/C(=N\[N+](C)(C)C)c1ccc(C)c(C)c1
inactive: A549 7.62 µM | BT-549 58.3 µM | CAKI-1 > 10 µM | DU-145 64.3 µM | HOP-62 > 10 µM | HOP-92 > 10 µM | LOX IMVI > 10 µM | MCF7 > 10 µM | MDA-MB-435 96.4 µM | NCI-H522 49.1 µM | NCI/ADR-RES > 10 µM | OVCAR-8 55.1 µM | RPMI-8226 54 µM | RXF 393 62.8 µM | SF-295 83.6 µM | SF-539 > 10 µM | SR 82.6 µM | UACC-62 > 100 µM | UO-31 77.4 µM
> 10 µM: HCT-15

Clc1ccc(C2NN=C3c4ccccc4OCC32)cc1 (centres undefined)
3.08 µM: HCT-15
inactive: A549 5.41 µM | BT-549 13.5 µM | CAKI-1 12.2 µM | DU-145 14.9 µM | HOP-62 6.71 µM | HOP-92 19.6 µM | LOX IMVI 8.02 µM | MCF7 3.68 µM | MDA-MB-435 2.38 µM | NCI-H522 1.5 µM | NCI/ADR-RES 2.35 µM | OVCAR-8 3.94 µM | RPMI-8226 2.44 µM | RXF 393 3.46 µM | SF-295 2.11 µM | SF-539 2.17 µM | SR 1.86 µM | UACC-62 5.07 µM | UO-31 7.16 µM

Cc1c(C)c(C)c(-n2c(=O)n(C)c(=O)n2-c2cc(C(C)(C)C)cc(C(C)(C)C)c2O)c(C)c1C
8.43 µM: HCT-15
inactive: A549 5.66 µM | BT-549 13.5 µM | CAKI-1 11.7 µM | DU-145 12.7 µM | HOP-62 14.4 µM | HOP-92 5.5 µM | LOX IMVI 13.6 µM | MCF7 4.06 µM | MDA-MB-435 11.9 µM | NCI-H522 4.54 µM | NCI/ADR-RES 8.38 µM | OVCAR-8 10.4 µM | RPMI-8226 4.63 µM | RXF 393 2.97 µM | SF-295 8.99 µM | SF-539 10.5 µM | SR 3.91 µM | UACC-62 11.1 µM | UO-31 3.08 µM

[O-][S+]1SC(=S)C2C=CC=CC21 (centres undefined)
40.9 µM: HCT-15
inactive: A549 38.2 µM | BT-549 > 100 µM | CAKI-1 > 100 µM | DU-145 > 100 µM | HOP-92 > 100 µM | LOX IMVI 34.7 µM | MCF7 76.9 µM | MDA-MB-435 80 µM | NCI-H522 76.2 µM | NCI/ADR-RES > 100 µM | OVCAR-8 > 100 µM | RPMI-8226 92.9 µM | RXF 393 > 100 µM | SF-295 88.9 µM | SF-539 > 100 µM | SR > 100 µM | UACC-62 58.5 µM | UO-31 36.8 µM
